In patent publication US20230398105A1, “TREATMENT REGIMENS FOR PARKINSON'S DISEASE” (BIAL - PORTELA & Cª, S.A., priority 2020, published 2023):

Tests used:
[1] = system: Parkinson's disease patients; assay: Pooled BIPARK-I and BIPARK-II post-hoc analysis: change from baseline in absolute off-time; type: in vivo, human; details: after 14-15 weeks
From the text: The term “absolute off-time” is the combined total daily of 30-minute periods spent in an “off” state. Conversely, the term “absolute on-time” is the combined total daily of 30-minute periods spent in an “on” state. Periods where the patient is asleep are excluded from either group.
The term “unpredictable motor fluctuations”, also known as “unpredictable on/off fluctuations” or “on/off phenomenon”, relates to the unpredictable re-emergence or worsening of symptoms at any time, such as severe troublesome dyskinesias, severe/unpredictable end-of-dose motor fluctuations, painful “off” dystonia and morning akinesia (Fabbri M. et al., Mov. Disord., 2018, 33, 1528-1539). Unpredictable motor fluctuations are unrelated to the timing of the next dose and may occur at any time during the day. […] Within the clinical trials analysed, unpredictable on/off fluctuations were defined as present if clinicians scored “NO” at the UPDRS item 36 (“Are “off” periods predictable?”), or “YES” in at least one of the following UPDRS items: 37 (“Are “off” periods unpredictable?”) and 38 (“Do “off” periods come on suddenly, within a few seconds?”).
(§1) The results of the two multi-centered double-blinded (DB) randomized placebo-controlled trials BIPARK-I (Ferreira et al., Lancet Neurol., 2016, 15, 154-65) and BIPARK-II (Lees et al., JAMA Neurol., 2017, 74, 197-206) were pooled together. Both clinical trials were performed to evaluate the efficacy and safety of opicapone in addition to levodopa-treated patients with moderate end-of-dose motor fluctuations. All patients had signs of end-of-dose deterioration for at least 4 weeks before screening, with a mean total awake off-time (state of akinesia or decreased mobility) of at least 1.5 hours, excluding morning akinesia. Eligible patients were randomized at baseline to the double-blind phase using a computer-generated scheme (administered by Cenduit, LLC) in a ratio of 1:1:1 to the addition of oral capsular opicapone, 25 mg/day or 50 mg/day, or matching placebo. The double-blind phase assessments occurred at 4-week intervals and the total duration of the double-blind phase could be 14 to 15 weeks. Full details of the inclusion and exclusion criteria and on study design are described in Ferreira et al., Lancet Neurol., 2016, 15, 154-65 and Lees et al., JAMA Neurol., 2017, 74, 197-206, which are incorporated herein by reference. Reductions in the daily dose (but not frequency) of levodopa were allowed between baseline and 3 to 4 weeks after baseline according to the clinical response but were not permitted thereafter.
(§2) Populations undergoing analysis included all randomized patients who took at least 1 dose of study medication and had at least 1 post-baseline off-time assessment. The post-hoc analysis described herein, analyzed Parkinson's disease patients with (“YES”) and without (“NO”) unpredictable on/off fluctuations.
(§3) The primary efficacy variable was the change from baseline in absolute off-time. As secondary end-point, the inventors analyzed the absolute on-time as well as the proportions of patients achieving at least a 1-hour reduction in absolute off-time and/or the proportions of patients achieving at least a 1-hour increase in absolute on-time at the end of the double-blind phase, defined as “responders”.
(§4) Changes from baseline were analysed using ANCOVA with treatment group included as fixed effect factor and the baseline scale score as a covariate. CMH-Test was used to assess differences between OPC dose levels and Placebo taking study into account as a factor.
(§5) Opicapone was synthesised as described in WO 2013/089573 and formulated into 25 or 50 mg capsules as described in WO 2010/114405. Study treatment (opicapone or matching placebo) was taken orally once daily in the evening at least 1 hour after the last daily dose of levodopa/DDCI (considered the bedtime dose).

[2] = system: Parkinson's disease patients; assay: Pooled BIPARK-I and BIPARK-II: OFF-time and ON-time responder rates (≥1 hour) at endpoint; type: in vivo, human
From the text: The term “responders” is defined as patients achieving at least a 1-hour reduction in absolute off-time and/or the proportions of patients achieving at least a 1-hour increase in absolute on-time at the end of the double-blind phase of the trial.
as §1, §2, §3, §4, §5

[3] = system: Parkinson's disease patients; details: BIPARK-I; patients with end-of-dose motor fluctuations; cited from earlier work
[4] = system: Parkinson's disease patients; assay: Pooled BIPARK-I and BIPARK-II: treatment-emergent adverse events in the safety set; type: in vivo, human
From the text: The term “treatment-emergent adverse events” is defined as any event not present before exposure to the study drug or any event already present that worsens in either intensity or frequency after first intake of study drug until 2 weeks after last intake of the study drug.
as §1, §5

[5] = 25 mg, NO: without unpredictable motor fluctuations
[6] = 25 mg, YES: with unpredictable motor fluctuations
[7] = 50 mg, NO: without unpredictable motor fluctuations
[8] = 50 mg, YES: with unpredictable motor fluctuations
[9] = 25 mg, NO: without unpredictable motor fluctuations, N = 143
[10] = 25 mg, YES: unpredictable motor fluctuations, N = 98
[11] = 50 mg, NO: without unpredictable motor fluctuations, N = 175
[12] = 50 mg, YES: unpredictable motor fluctuations, N = 87

Cc1c(Cl)c(C)[n+]([O-])c(Cl)c1-c1noc(-c2cc(O)c(O)c([N+](=O)[O-])c2)n1 [opicapone, 2,5-dichloro-3-[5-(3,4-dihydroxy-5-nitrophenyl)-1,2,4-oxadiazol-3-yl]-4,6-dimethylpyridine 1-oxide]
Absolute off-time, change from baseline vs. placebo ([1]; 25 mg vs. placebo, NO: patients without unpredictable motor fluctuations): -20.4 min
Absolute off-time, change from baseline vs. placebo ([1]; 25 mg vs. placebo, Total patients): -40.7 min
Absolute off-time, change from baseline vs. placebo ([1]; 25 mg vs. placebo, YES: patients with unpredictable motor fluctuations): -61 min
Absolute off-time, change from baseline to end-point ([1]; 25 mg, NO: patients without unpredictable motor fluctuations): -73.6 min
Absolute off-time, change from baseline to end-point ([1]; 25 mg, Total patients): -98.7 min
Absolute off-time, change from baseline to end-point ([1]; 25 mg, YES: patients with unpredictable motor fluctuations): -123.8 min
Absolute off-time, change from baseline vs. placebo ([1]; 50 mg vs. placebo, Total patients): -64 min
Absolute off-time, change from baseline to end-point ([1]; 50 mg, NO: patients without unpredictable motor fluctuations): -104.7 min
Absolute off-time, change from baseline to end-point ([1]; 50 mg, Total patients): -122 min
Absolute off-time, change from baseline to end-point ([1]; 50 mg, YES: patients with unpredictable motor fluctuations): -139.3 min
responders, off-time reduced (≥1 hour) [2, 5]: 58.7%
responders, on-time increased (≥1 hour) [2, 5]: 53.8%
responders, off-time reduced (≥1 hour) [2, 6]: 65.3%
responders, on-time increased (≥1 hour) [2, 6]: 69.4%
responders, off-time reduced (≥1 hour) [2, 7]: 68.6%
responders, on-time increased (≥1 hour) [2, 7]: 61.7%
responders, off-time reduced (≥1 hour) [2, 8]: 65.5%
responders, on-time increased (≥1 hour) [2, 8]: 66.7%
ability to reduce the time patients spent in the off state, vs. entacapone [3]: non-inferior
ability to reduce the time patients spent in the off state, vs. placebo combined with levodopa/DCCI [3]: superior
Incidence of Related Serious TEAEs [4, 9]: 0 number (%)
Incidence of Serious TEAEs [4, 9]: 2 (0.8) number (%)
Incidence of any TEAEs leading to Discontinuation [4, 9]: 7 (2.9) number (%)
TEAE: Anxiety [4, 9]: 0 number (%)
TEAE: Back pain [4, 9]: 4 (2.7) number (%)
TEAE: Constipation [4, 9]: 9 (6.2) number (%)
TEAE: Dizziness [4, 9]: 7 (4.8) number (%)
TEAE: Dry mouth [4, 9]: 8 (5.5) number (%)
TEAE: Dyskinesias [4, 9]: 14 (9.6) number (%)
TEAE: Falls [4, 9]: 3 (2.1) number (%)
TEAE: Headache [4, 9]: 6 (4.1) number (%)
TEAE: Hypertension [4, 9]: 6 (4.1) number (%)
TEAE: Insomnia [4, 9]: 11 (7.5) number (%)
TEAE: Nausea [4, 9]: 5 (3.4) number (%)
TEAE: Parkinson's disease [4, 9]: 4 (2.7) number (%)
TEAE: Somnolence [4, 9]: 3 (2.1) number (%)
TEAE: Urinary tract infection [4, 9]: 1 (0.7) number (%)
TEAE: ↑CPK (Blood creatine phosphokinase) [4, 9]: 4 (2.7) number (%)
Incidence of Serious TEAEs [4, 10]: 3 (1.2) number (%)
Incidence of any TEAEs leading to Discontinuation [4, 10]: 6 (2.5) number (%)
TEAE: Anxiety [4, 10]: 5 (5.1) number (%)
TEAE: Back pain [4, 10]: 1 (1.0) number (%)
TEAE: Constipation [4, 10]: 3 (3.1) number (%)
TEAE: Dizziness [4, 10]: 3 (3.1) number (%)
TEAE: Dry mouth [4, 10]: 8 (8.2) number (%)
TEAE: Dyskinesias [4, 10]: 25 (25.5) number (%)
TEAE: Falls [4, 10]: 8 (8.2) number (%)
TEAE: Headache [4, 10]: 2 (2.0) number (%)
TEAE: Hypertension [4, 10]: 4 ( 4.1) number (%)
TEAE: Insomnia [4, 10]: 6 (6.1) number (%)
TEAE: Nausea [4, 10]: 6 (6.1) number (%)
TEAE: Parkinson's disease [4, 10]: 7 (7.1) number (%)
TEAE: Somnolence [4, 10]: 7 (7.1) number (%)
TEAE: Urinary tract infection [4, 10]: 3 (3.1) number (%)
TEAE: Weight decrease [4, 10]: 0 number (%)
TEAE: ↑CPK (Blood creatine phosphokinase) [4, 10]: 3 (3.1) number (%)
Incidence of Serious TEAEs [4, 11]: 6 (2.3) number (%)
Incidence of any TEAEs leading to Discontinuation [4, 11]: 13 (4.9) number (%)
TEAE: Back pain [4, 11]: 1 (0.6) number (%)
TEAE: Constipation [4, 11]: 10 (5.6) number (%)
TEAE: Dizziness [4, 11]: 5 (2.8) number (%)
TEAE: Dry mouth [4, 11]: 5 (2.8) number (%)
TEAE: Dyskinesias [4, 11]: 35 (19.7) number (%)
TEAE: Falls [4, 11]: 3 (1.7) number (%)
TEAE: Headache [4, 11]: 7 (3.9) number (%)
TEAE: Hypertension [4, 11]: 7 (3.9) number (%)
TEAE: Insomnia [4, 11]: 6 (3.4) number (%)
TEAE: Nausea [4, 11]: 6 (3.4) number (%)
TEAE: Parkinson's disease [4, 11]: 5 (2.8) number (%)
TEAE: Somnolence [4, 11]: 3 (1.7) number (%)
TEAE: Urinary tract infection [4, 11]: 9 (5.1) number (%)
TEAE: Weight decrease [4, 11]: 9 (5.1) number (%)
TEAE: ↑CPK (Blood creatine phosphokinase) [4, 11]: 12 (6.7) number (%)
Incidence of Related Serious TEAEs [4, 12]: 1 (0.4) number (%)
Incidence of Serious TEAEs [4, 12]: 7 (2.6) number (%)
Incidence of any TEAEs leading to Discontinuation [4, 12]: 10 (3.8) number (%)
TEAE: Anxiety [4, 12]: 3 (3.4) number (%)
TEAE: Back pain [4, 12]: 2 (2.3) number (%)
TEAE: Constipation [4, 12]: 7 (8.0) number (%)
TEAE: Dizziness [4, 12]: 4 (4.6) number (%)
TEAE: Dry mouth [4, 12]: 3 (3.4) number (%)
TEAE: Dyskinesias [4, 12]: 19 (21.8) number (%)
TEAE: Falls [4, 12]: 5 (5.7) number (%)
TEAE: Headache [4, 12]: 3 (3.4) number (%)
TEAE: Hypertension [4, 12]: 1 (1.1) number (%)
TEAE: Insomnia [4, 12]: 3 (3.4) number (%)
TEAE: Nausea [4, 12]: 2 (2.3) number (%)
TEAE: Parkinson's disease [4, 12]: 1 (1.1) number (%)
TEAE: Somnolence [4, 12]: 2 (2.3) number (%)
TEAE: Urinary tract infection [4, 12]: 1 (1.1) number (%)
TEAE: Weight decrease [4, 12]: 1.1 (0.4) number (%)
TEAE: ↑CPK (Blood creatine phosphokinase) [4, 12]: 1 (1.1) number (%)
Safety in patients with unpredictable motor fluctuations ([4]; patients with unpredictable motor fluctuations): safe
